Patent publication US20180014546A1, “Broad Spectrum Bacteriocin for Control of Unwanted Bacteria” (priority 2013, published 2018)
“Also recorded” adds a separate entry of the source.

Tests used:
[1] = system: Lactobacillus fermentum strain 0315-25; assay: Batch culture growth inhibition, bacteriocin and/or phage, growth monitored 24 h; assay type: cell-based
Method: Bacteriocin alone, bacteriophage alone, and bacteriocin combined with phage were tested against Lactobacillus in batch culture systems. To be specific, logarithmic growth phase cultures of Lactobacillus fermentum strain 0315-25 (OD600 being 0.1) were treated either with single agent at different doses, such as bacteriocin GP15cin alone at different doses (0.1%, 1%, and 10%, v/v), or a phage designated herein as LferInf alone at different MOIs (0.1, 1, and 10), or two agents combined together at different doses, such as 0.1% GP15cin plus LferInf at MOI of 0.1, 0.1% GP15cin plus phage LferInf at MOI of 1, 1% GP15cin plus LferInf at MOI of 0.1, and 1% GP15cin plus phage LferInf at MOI of 1. Culture without any treatment was served as control. LferInf is a bacteriophage isolated from wastewater and found to be effective against a broad host range of Lactobacillus and described in more detail below. The growth of bacteria was monitored for 24 h, and the treatment effects were compared.

[2] = system: indigenous contaminating bacteria in ethanol fermentation mash; assay: Reduction of indigenous contaminating bacterial level in fermentation mash from commercial ethanol plants; assay type: cell-based; conditions: crude form
Method: The inhibitory activity spectrum of GP15cin against different strains was determined. The active concentration range and the minimum inhibition concentration of the bacteriocin are determined using different indicator strains. The activity levels of the bacteriocin present in the raw bacterial culture supernatants and/or in partially purified mixtures were also determined. […] FIG. 2 to FIG. 11 show the effectiveness of GP15cin in reducing the total levels of indigenous bacteria presented in fermentation mash from different commercial ethanol plants. The exact identities of the indigenous bacteria population in different plants are unknown and are likely highly diverse.
GP15cin described herein were produced by a L. plantarum strain, which was isolated from the indigenous LAB populations present during commercial ethanol fermentation. GP15cin can act towards species and/or strains of similar indigenous LAB populations and thus can be used as an effective control for contaminating LAB. […] Either fermentor or mash cooler mash samples were collected from 6 different commercial ethanol plants on 13 different days from 2012 to 2014. Results of 15 independent tests are shown. […] It is likely that the effects on controlling contaminating bacteria and acids will be even more significant if a higher dose of GP5cin is used. […]

[3] = system: LAB isolates from commercial ethanol plants (Lactobacillus, Lactococcus, Weissella, Leuconostoc, Pediococcus, Enterococcus, Streptococcus); assay: Inhibitory activity spectrum, culture supernatant spotted on indicator bacterial lawns (LAB isolates); assay type: cell-based, lactic acid bacteria; conditions: multiple genera
Method: (§1) In the discovery of the unique broad spectrum bacteriocin of this invention, indigenous LAB were isolated and purified from the fermentation mash of the commercial ethanol fermentation plants. The identities of the isolates were determined to the species level based on their 16s rDNA sequences. The capability of the isolated LAB strains to produce antimicrobial compounds was identified. Culture supernatants of the strains to be tested were spotted onto individual indicator bacterial culture lawns, which were prepared using a variety of LAB strains of different genera. After incubation, growth inhibition of the indicator bacteria was seen as a clear zone at and around the spotting position. Any positive activity of bacterial growth inhibition from the tested culture supernatant was confirmed again in the same manner, and the inhibitory activity spectrum of the antimicrobial compound is determined. […]
(§2) The inhibitory activity spectrum of GP15cin against different strains was determined. The active concentration range and the minimum inhibition concentration of the bacteriocin are determined using different indicator strains. The activity levels of the bacteriocin present in the raw bacterial culture supernatants and/or in partially purified mixtures were also determined. […]

[4] = system: non-LAB isolates (strains of Staphylococcus, Enterobacter, Bacillus, Clostridium); assay: Inhibitory activity spectrum, culture supernatant spotted on indicator bacterial lawns (non-LAB isolates); assay type: cell-based
Method: as §1, §2

[5] = Bacteriocin stability at different temperatures and pH values; assay type: physicochemical
Method: Either using crude, partially or completely purified form, the chemical characteristics of the bacteriocins can be determined. The determined characteristics include their sensitivities to different enzymes, stability at different temperatures and pH values, etc. Sensitivity of the bacteriocin to proteolytic and lipolytic enzymes, such as trypsin, pepsin, pronase, lipase, etc, was tested. The proteinaceus nature of GP15cin was confirmed. […] The same bacteriocin has optimal activity in the pH range of 4-10.

[6] = system: production host Lactobacillus plantarum GP15; assay: Activity against own production host; assay type: cell-based
Source text: As noted above, GP-15cin may be applied alone or in combination with other bacteriocin and/or bacteriophage virulent for unwanted bacteria in the same system. Bacteriocin producing hosts are immune to the bacteriocins produced by themselves. GP-15cin is therefore not active against its own production host, GP15cin. […] Therefore, it is desirable to combine GP-15cin with a different bacteriocin in a cocktail that will kill the bacteria insensitive to GP15cin. Additionally, GP-15cin may be combined with other antimicrobial agents to broaden the scope of effectiveness against the range of unwanted bacteria that are targeted. For example, the combination of bacteriocin and bacteriophage (phage) ensures a broader inhibition spectrum and more efficient control of the bacteria contamination. Phage targeting these non-sensitive strains can be isolated, and be combined with the bacteriocin for a complete control of contaminating bacteria.

[7] = system: contaminating LAB; assay: Lactic and acetic acid levels in laboratory-scale ethanol fermentation; assay type: cell-based
Source text: GP15cin described herein were produced by a L. plantarum strain, which was isolated from the indigenous LAB populations present during commercial ethanol fermentation. GP15cin can act towards species and/or strains of similar indigenous LAB populations and thus can be used as an effective control for contaminating LAB. […] Either fermentor or mash cooler mash samples were collected from 6 different commercial ethanol plants on 13 different days from 2012 to 2014. Results of 15 independent tests are shown. […] It is likely that the effects on controlling contaminating bacteria and acids will be even more significant if a higher dose of […] is used. The presented results highlight the feasibility of GP15cin application for control of unwanted bacteria in ethanol and other biofuel industries.

plantaricin W [GP15cin]
growth of L. fermentum ([1]; GP15cin alone 0.1% v/v): all treatment, except GP15cin used at 0.1%, suppressed the growth | growth of L. fermentum ([1]; GP15cin alone 1% v/v): suppressed the growth | growth of L. fermentum ([1]; GP15cin alone 10% v/v): suppressed the growth | time in which the reduction effect was seen [2]: ≥ 2 h | reduction of indigenous contaminating bacteria levels ([2]; mash samples from 6 plants, 15 independent tests): consistent reduction effects seen in all tests; also recorded: reduced indigenous contaminating bacteria levels in all mash samples | killing activity against LAB isolates [3]: broad range killing activity; also recorded: extremely broad killing spectrum | killing activity against non-LAB isolates [4]: showed killing activity | pH range of optimal activity [5]: 4-10 pH | loss of activity (heat resistance) ([5]; after 2 hours at 120° C.): not a complete loss of activity | loss of activity ([5]; pH 12): complete loss of activity | reduction in activity ([5]; pH values of 1, 2, 3, and 11): 50% | reduction in activity ([5]; temperature of 120° C.): 87.5% | reduction in activity ([5]; temperatures of 65-100° C.): 50% | activity against own production host [6]: not active | lactic acid and acetic acid levels produced by contaminating LAB [7]: significantly reduced
